From patent US11279694B2, “Alvocidib prodrugs and their use as protein kinase inhibitors” (Sumitomo Dainippon Pharma Oncology, Inc., priority 2016, dated 2022) come the findings set out here.

“And” between values parts separate entries of the source, which are not always exact repeats. Equal values may be shown once.

Data set [1] can be described thus: Pharmacokinetic testing of representative compounds in CD-1 mice, oral dosing. In kind it is in vivo. The following applies: mean ± SD; for AUC0→∞, analyte: prodrug compound / AUCLast, analyte: prodrug compound / half-life / Tmax: dosed orally 10 mg/kg, analyte = dosed prodrug, nd = none detected; for half-life / Tmax: mouse, in vivo, po; for half-life: read-out: Half Life, analyte: prodrug compound (converted); for Tmax: read-out: Tmax, analyte: prodrug compound. Here is the method: Representative compounds were tested for pharmacokinetic activity in CD-1 mice. Mice were dosed orally with 10 mg/kg of each representative compound as well as alvocidib.
The results in Table 3 show the tested compounds afforded high exposure of released alvocidib and no apparent exposure of the prodrug compounds. Additional results are shown in Tables 4 and 5, including use of alvocidib.HCl as a control: […]

Data set [2] can be described thus: Comparison of exposure of released alvocidib to parent prodrug exposure. It counts as in vivo. Particulars: expressed as a percentage of the released alvocidib exposure. Here is the method: Representative prodrug compounds (i.e., Compounds 10, 21-28 and 29-31) were tested to determine the resultant exposure of released alvocidib as well exposure of the parent compound. The exposure of the parent prodrug is expressed as a percentage of the released alvocidib exposure (% F). The released alvocidib exposure (% F) for each prodrug was calculated as a percentage of the exposure of alvocidib, dosed orally at an equivalent dose.

[3] abbreviates: labelled compound dosed orally 10 mg/kg, analyte = alvocidib (released from prodrug, or alvocidib.HCl control), hydrochloride, 10 mg/kg.

Take `CN1CC[C@H](c2c(O)cc(O)c3c(=O)cc(-c4ccccc4Cl)oc23)[C@H](O)C1.Cl` [Alvocidib•HCl, 2-(2-chlorophenyl)-5,7-dihydroxy-8-[(3S,4R)-3-hydroxy-1-methylpiperidin-4-yl]-4H-chromen-4-one hydrochloride, reference compound]: in data set [1] (setting [3]), the “AUC0→∞, analyte: Alvocidib” value was 10,933.3 ± 4498.0 ng · h/mL or ng · h/G and 10,603.8 ± 1968.4 ng · h/mL or ng · h/G; the “AUCLast, analyte: Alvocidib” value was 7275.2 ± 2572.2 ng · h/mL or ng · h/G and 9952.7 ± 1769.5 ng · h/mL or ng · h/G.

As to `CCOC(=O)O[C@@H]1CN(C)CC[C@@H]1c1c(O)cc(O)c2c(=O)cc(-c3ccccc3Cl)oc12` [Compound 10, (3S, 4R)-4-(2-(2-chlorophenyl)-5,7-dihydroxy-4-oxo-4H-chromen-8-yl)-1-methylpiperidin-3-yl ethyl carbonate], the “exposure of the parent prodrug” value in data set [2] is reported as 2%. Moreover, in data set [1], the “AUC0→∞, analyte: prodrug compound” value is listed as 646.8 ± 219.4 ng · h/mL or ng · h/G; the “AUCLast, analyte: prodrug compound” value is given as 405.4 ± 215.6 ng · h/mL or ng · h/G; the half-life (in general, the time in which the quantity being followed falls by half) was 3.8 ± 0.6 h; the Tmax (as a rule, the time at which the peak concentration occurs) was found to be 0.25 h.

As to `COC(=O)O[C@@H]1CN(C)CC[C@@H]1c1c(O)cc(O)c2c(=O)cc(-c3ccccc3Cl)oc12` [Compound 11, (3S, 4R)-4-(2-(2-chlorophenyl)-5,7-dihydroxy-4-oxo-4H-chromen-8-yl)-1-methylpiperidin-3-yl methyl carbonate], in data set [1], the “AUC0→∞, analyte: prodrug compound” value was 275.1 ± 24.1 ng · h/mL or ng · h/G; the “AUCLast, analyte: prodrug compound” value is given as 238.3 ± 43.9 ng · h/mL or ng · h/G; the half-life was 4.2 ± 0.1 h; the Tmax turned out to be 0.25 h.

Take `CCNC(=O)O[C@@H]1CN(C)CC[C@@H]1c1c(O)cc(O)c2c(=O)cc(-c3ccccc3Cl)oc12` [Compound 12, (3S, 4R)-4-(2-(2-chlorophenyl)-5,7-dihydroxy-4-oxo-4H-chromen-8-yl)-1-methylpiperidin-3-yl ethylcarbamate]: in data set [1], the “AUC0→∞, analyte: prodrug compound” value is 281.4 ± 28.3 ng · h/mL or ng · h/G; the “AUCLast, analyte: prodrug compound” value is given as 262.2 ± 27.8 ng · h/mL or ng · h/G; the half-life was 2.1 ± 0.1 h; the Tmax was 0.42 ± 0.1 h.

With `CNC(=O)O[C@@H]1CN(C)CC[C@@H]1c1c(O)cc(O)c2c(=O)cc(-c3ccccc3Cl)oc12` [Compound 13, (3S, 4R)-4-(2-(2-chlorophenyl)-5,7-dihydroxy-4-oxo-4H-chromen-8-yl)-1-methylpiperidin-3-yl methylcarbamate], in data set [1], the “AUC0→∞, analyte: prodrug compound” value is on record as 620.2 ± 147.7 ng · h/mL or ng · h/G; the “AUCLast, analyte: prodrug compound” value is 594.7 ± 143.7 ng · h/mL or ng · h/G; the half-life was 2 ± 0.8 h; the Tmax came out at 0.4 ± 0.1 h.

`CC(C)C(=O)O[C@@H]1CN(C)CC[C@@H]1c1c(O)cc(O)c2c(=O)cc(-c3ccccc3Cl)oc12` [Compound 22, (3S, 4R)-4-(2-(2-chlorophenyl)-5,7-dihydroxy-4-oxo-4H-chromen-8-yl)-1-methylpiperidin-3-yl isobutyrate]: in data set [2], the “exposure of the parent prodrug” value was 3%.

Take `C[C@H](N)C(=O)O[C@@H]1CN(C)CC[C@@H]1c1c(O)cc(O)c2c(=O)cc(-c3ccccc3Cl)oc12` [Compound 27, (3S, 4R)-4-(2-(2-chlorophenyl)-5,7-dihydroxy-4-oxo-4H-chromen-8-yl)-1-methylpiperidin-3-yl L-alaninate]: the “exposure of the parent prodrug” value in data set [2] is “low exposure”.

`CN1CC[C@H](c2c(O)cc(O)c3c(=O)cc(-c4ccccc4Cl)oc23)[C@H](OC(=O)CN)C1` [Compound 28, (3S, 4R)-4-(2-(2-chlorophenyl)-5,7-dihydroxy-4-oxo-4H-chromen-8-yl)-1-methylpiperidin-3-yl glycinate]: in data set [2], the “exposure of the parent prodrug” value was “not detected”.

For `CCCCCCC(=O)O[C@@H]1CN(C)CC[C@@H]1c1c(O)cc(O)c2c(=O)cc(-c3ccccc3Cl)oc12` [Compound 31, (3S, 4R)-4-(2-(2-chlorophenyl)-5,7-dihydroxy-4-oxo-4H-chromen-8-yl)-1-methylpiperidin-3-yl heptanoate], in data set [2], the “exposure of the parent prodrug” value is “not detected”.

Take `CCCCC(=O)O[C@@H]1CN(C)CC[C@@H]1c1c(O)cc(O)c2c(=O)cc(-c3ccccc3Cl)oc12` [Compound 32, (3S, 4R)-4-(2-(2-chlorophenyl)-5,7-dihydroxy-4-oxo-4H-chromen-8-yl)-1-methylpiperidin-3-yl pentanoate]: the “exposure of the parent prodrug” value in data set [2] was “not detected”.
